Source: patent US10246426B2, “Triazole compounds as T-type calcium channel blockers” (IDORSIA PHARMACEUTICALS LTD, priority 2014, dated 2019)

These molecules were tested against Cav3.2 (Homo sapiens, UniProt O95180) (assay: Calcium flux FLIPR assay, HEK293 cells recombinantly expressing Cav3.2). Details: Cav3.2-channel, Ca2+ entry stimulated by 10 mM CaCl2.
Assay type: cell-based
Protocol: In Vitro Methods—Measurement of Calcium Channel Flux by Means of FLIPR Assays.
HEK293 cells recombinantly expressing either voltage-dependent T-type calcium channel subunit […] (Cav3.2) or voltage-dependent L-type calcium channel subunit alpha-1C (Cav1.2) are assayed for calcium flux using the calcium indicator dye Fluo-4-AM (Molecular Devices) and FLIPR technology (Fluorometric Imaging Plate Reader, Molecular Devices) (Xie X, Van Deusen A L, Vitko I, Babu D A, Davies L A, Huynh N, Cheng H, Yang N, Barrett P Q, Perez-Reyes E. Validation of high throughput screening assays against three subtypes of Ca(v)3 T-type channels using molecular and pharmacologic approaches. Assay and Drug Development Technologies 2007, 5(2), 191-203). The HEK293 cells recombinantly expressing Cav3.2 are maintained in DMEM growth medium (Life Technologies) supplemented with 10% Fetal Bovine Serum (FBS), 100 U/ml penicilin (Life Technologies), 100 μg/ml streptomycin (Life Technologies) and 1 mg/ml G418 (Life Technologies). HEK293 cells recombinantly expressing Cav1.2 are maintained in DMEM growth medium (Life technologies) supplemented with 10% FBS, 0.1 mg/ml G418 (Life Technologies), 0.1 mg/ml hygromycin (Life Technologies) and 40 ug/ml zeocin (Life Technologies).
Cells are washed once with PBS, then dissociated in 0.25% trypsin/EDTA (Life Technologies) and seeded into poly-D-lysine coated 384-well black, clear bottom plates (BD Biosciences) at a density of 30,000 cells/well. The seeded plates are incubated overnight at 37° C.
Immediately prior to performing the assay, medium is removed and cells are treated for 1 hour at 37° C. with loading buffer containing HBSS 1× (137 mM NaCl; 5.4 mM KCl; 0.25 mM Na2HPO4; 1.3 mM CaCl2; 0.4 mM MgSO04; 0.5 mM MgCl2; 0.4 mM KH2PO4, pH 7.4), 0.375 g/L NaHCO3, 20 mM Hepes, supplemented with 3 μM Fluo-4-AM and 0.15% Pluronic (Life Technologies). The cells are then washed three times with assay buffer (HBSS 1×; 0.375 g/L NaHCO3; 20 mM Hepes; 1% FBS; pH 7.4) and allowed to rest in 50 μl of wash buffer for 30 minutes.
Stock solutions of test compounds are prepared to a concentration of 10 mM in DMSO. For the Cav3.2 assay, serial dilutions of the compounds are prepared in TEAC buffer (100 mM tetraethylammonium chloride; 20 mM Hepes; 2.5 mM CaCl2; 5 mM KCl; 1 mM MgCl2; 1% FBS; pH 7.2), for the Cav1.2 assay serial dilutions are prepared in assay buffer. […] The compounds are incubated with the cells for 3 minutes and Ca2+ entry is stimulated by adding either CaCl2 to a final concentration of 10 mM (Cav3.2 assay) or by adding KCl to a final concentration of 20 mM (Cav1.2 assay). The kinetics of fluorescence increase are recorded for every well and the area under the fluorescence trace for every compound concentration is used to generate inhibition curves using non-linear regression sigmoidal concentration-response curve analysis with in-house software. IC50 values are calculated and represent the compound concentration required to inhibit 50% of the signal that is obtained in the presence of vehicle instead of test compound.

Sequence of Cav3.2 (O95180 whole entry, looked up): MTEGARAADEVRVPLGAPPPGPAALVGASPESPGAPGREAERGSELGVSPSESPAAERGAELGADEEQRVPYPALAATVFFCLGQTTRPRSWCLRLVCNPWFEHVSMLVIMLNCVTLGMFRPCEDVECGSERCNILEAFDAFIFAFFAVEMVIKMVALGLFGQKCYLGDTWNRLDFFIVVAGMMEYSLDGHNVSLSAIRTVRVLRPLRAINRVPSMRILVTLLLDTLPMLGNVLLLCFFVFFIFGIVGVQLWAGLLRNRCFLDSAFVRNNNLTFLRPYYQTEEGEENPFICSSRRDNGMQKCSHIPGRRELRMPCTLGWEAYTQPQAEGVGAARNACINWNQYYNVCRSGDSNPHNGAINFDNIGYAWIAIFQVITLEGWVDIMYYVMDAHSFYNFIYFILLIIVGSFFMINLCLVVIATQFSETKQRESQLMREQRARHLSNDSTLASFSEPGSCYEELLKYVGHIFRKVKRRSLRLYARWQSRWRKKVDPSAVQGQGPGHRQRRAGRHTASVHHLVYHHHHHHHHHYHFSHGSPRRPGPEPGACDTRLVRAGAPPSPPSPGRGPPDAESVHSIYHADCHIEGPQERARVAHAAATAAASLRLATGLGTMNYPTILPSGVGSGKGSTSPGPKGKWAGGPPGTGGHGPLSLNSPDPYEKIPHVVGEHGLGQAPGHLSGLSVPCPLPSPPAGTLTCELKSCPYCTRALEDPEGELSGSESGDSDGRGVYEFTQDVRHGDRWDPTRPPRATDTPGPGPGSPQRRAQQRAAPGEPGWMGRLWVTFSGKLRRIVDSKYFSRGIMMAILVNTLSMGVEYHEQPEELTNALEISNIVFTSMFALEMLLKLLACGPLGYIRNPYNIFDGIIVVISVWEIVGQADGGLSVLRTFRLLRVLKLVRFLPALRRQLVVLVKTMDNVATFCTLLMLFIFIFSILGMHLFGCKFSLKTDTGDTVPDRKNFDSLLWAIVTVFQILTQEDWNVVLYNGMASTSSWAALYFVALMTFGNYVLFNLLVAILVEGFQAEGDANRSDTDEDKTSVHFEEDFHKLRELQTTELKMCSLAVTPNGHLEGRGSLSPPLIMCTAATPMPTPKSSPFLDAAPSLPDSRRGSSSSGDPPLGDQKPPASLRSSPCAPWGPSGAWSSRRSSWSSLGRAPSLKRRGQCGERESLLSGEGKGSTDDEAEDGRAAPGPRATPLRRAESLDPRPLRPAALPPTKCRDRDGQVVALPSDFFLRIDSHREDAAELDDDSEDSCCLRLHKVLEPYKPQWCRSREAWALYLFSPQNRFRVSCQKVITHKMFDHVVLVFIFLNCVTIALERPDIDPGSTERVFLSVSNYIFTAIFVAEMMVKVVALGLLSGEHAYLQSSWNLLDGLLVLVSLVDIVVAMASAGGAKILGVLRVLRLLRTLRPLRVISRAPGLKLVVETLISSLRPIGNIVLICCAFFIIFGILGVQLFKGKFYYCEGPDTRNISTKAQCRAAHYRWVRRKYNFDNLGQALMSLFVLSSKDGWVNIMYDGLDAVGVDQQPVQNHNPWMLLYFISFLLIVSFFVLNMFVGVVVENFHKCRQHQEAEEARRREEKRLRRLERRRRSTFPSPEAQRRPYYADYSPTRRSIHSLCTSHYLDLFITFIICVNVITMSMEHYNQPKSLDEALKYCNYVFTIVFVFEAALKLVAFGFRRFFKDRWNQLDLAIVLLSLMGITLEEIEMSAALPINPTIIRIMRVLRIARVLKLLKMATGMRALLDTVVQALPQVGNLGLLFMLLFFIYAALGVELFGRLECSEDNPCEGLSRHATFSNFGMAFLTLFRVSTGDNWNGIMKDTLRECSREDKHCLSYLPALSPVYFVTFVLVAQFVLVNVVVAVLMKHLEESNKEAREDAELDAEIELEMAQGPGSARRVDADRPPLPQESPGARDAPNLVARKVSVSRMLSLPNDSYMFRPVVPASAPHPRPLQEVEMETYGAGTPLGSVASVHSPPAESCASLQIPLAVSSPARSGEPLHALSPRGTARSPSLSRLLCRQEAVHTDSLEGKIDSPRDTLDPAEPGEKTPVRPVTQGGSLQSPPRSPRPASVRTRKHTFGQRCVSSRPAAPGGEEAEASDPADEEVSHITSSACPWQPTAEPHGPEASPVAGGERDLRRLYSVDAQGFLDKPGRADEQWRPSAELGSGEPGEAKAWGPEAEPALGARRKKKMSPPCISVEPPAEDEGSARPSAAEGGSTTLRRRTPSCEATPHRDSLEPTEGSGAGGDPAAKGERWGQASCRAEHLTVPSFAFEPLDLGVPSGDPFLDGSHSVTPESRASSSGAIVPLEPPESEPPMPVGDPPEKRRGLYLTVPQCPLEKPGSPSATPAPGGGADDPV

| IC50 | SMILES |
| --- | --- |
| 0.065 µM | CC(C)c1ccc(CC(=O)Nc2cnn(Cc3ccc(OC(F)(F)F)c(F)c3)n2)cc1 [Example 187, N-[2-(3-Fluoro-4-trifluoromethoxy-benzyl)-2H-[1,2,3]triazol-4-yl]-2-(4-isopropyl-phenyl)-acetamide] |
| 0.2 µM | CC(C)(C)c1ccc(CC(=O)Nc2cnn(Cc3ccc(OC(F)(F)F)cc3)n2)cc1 [Example 90, 2-(4-tert-Butyl-phenyl)-N-[2-(4-trifluoromethoxy-benzyl)-2H-[1,2,3]triazol4-yl]-acetamide] |
| 0.091 µM | COc1ccc(Cn2ncc(NC(=O)Cc3ccc4c(cnn4C)c3)n2)cc1F [Example 152, N-[2-(3-Fluoro-4-methoxy-benzyl)-2H-[1,2,3]triazol-4-yl]-2-(1-methyl-1H-indazol-5-yl)-acetamide] |
| 0.58 µM | Cn1ncc2cc(CC(=O)Nc3cnn(Cc4ccc(F)c(F)c4)n3)cnc21 [Example 38, N-[2-(3,4-Difluoro-benzyl)-2H-[1,2,3]triazol-4-yl]-2-(1-methyl-1H-pyrazolo[3,4-b]pyridin-5-yl)-acetamide] |
| 0.15 µM | Cn1ncc2cc(CC(=O)Nc3cnn(Cc4ccc(F)c(C#N)c4)n3)ccc21 [Example 173, N-[2-(3-Cyano-4-fluoro-benzyl)-2H-[1,2,3]triazol-4-yl]-2-(1-methyl-1H-indazol-5-yl)-acetamide] |
| 0.0064 µM | Cn1ccc2cc(CC(=O)Nc3cnn(Cc4ccc(F)c(F)c4)n3)ccc21 [Example 7, N-[2-(3,4-Difluoro-benzyl)-2H-[1,2,3]triazol-4-yl]-2-(1-methyl-1H-indol-5-yl)-acetamide] |
| 0.16 µM | Cc1ccc(Cn2ncc(NC(=O)Cc3ccc(C(C)(C)C)cc3)n2)cc1C#N [Example 217, 2-(4-tert-Butyl-phenyl)-N-[2-(3-cyano-4-methyl-benzyl)-2H-[1,2,3]triazol-4-yl]-acetamide] |
| 0.024 µM | CC(C)n1ncc2cc(CC(=O)Nc3cnn(Cc4ccc(F)c(F)c4)n3)ccc21 [Example 33, N-[2-(3,4-Difluoro-benzyl)-2H-[1,2,3]triazol-4-yl]-2-(1-isopropyl-1H-indazol-5-yl)-acetamide] |
| 0.028 µM | COc1c(F)cc(Cn2ncc(NC(=O)Cc3ccc(N4CCCC4)nc3)n2)cc1F [Example 81, N-[2-(3,5-Difluoro-4-methoxy-benzyl)-2H-[1,2,3]triazol-4-yl]-2-(6-pyrrolidin-1-yl-pyridin-3-yl)-acetamide] |
| 0.36 µM | COc1ccc(Cn2ncc(NC(=O)Cc3ccc(C4(OC)COC4)cc3)n2)cc1F [Example 122, N-[2-(3-Fluoro-4-methoxy-benzyl)-2H-[1,2,3]triazol-4-yl]-2-[4-(3-methoxy-oxetan-3-yl)-phenyl]-acetamide] |
| 0.088 µM | COc1c(F)cc(Cn2ncc(NC(=O)Cc3ccc4cnn(C)c4c3)n2)cc1F [Example 142, N-[2-(3,5-Difluoro-4-methoxy-benzyl)-2H-[1,2,3]triazol-4-yl]-2-(1-methyl-1H-indazol-6-yl)-acetamide] |
| 0.083 µM | N#Cc1ccc(Cn2ncc(NC(=O)Cc3ccc(N4CCCC4)nc3)n2)cc1 [Example 98, N-[2-(4-Cyano-benzyl)-2H-[1,2,3]triazol-4-yl]-2-(6-pyrrolidin-1-yl-pyridin-3-yl)-acetamide] |
| 0.022 µM | Cc1cc(Cn2ncc(NC(=O)Cc3ccc4c(c3)c(C)cn4C)n2)ccc1C#N [Example 171, N-[2-(4-Cyano-3-methyl-benzyl)-2H-[1,2,3]triazol-4-yl]-2-(1,3-dimethyl-1H-indol-5-yl)-acetamide] |
| 0.029 µM | CCn1ncc2cc(CC(=O)Nc3cnn(Cc4cc(F)c(OC)c(F)c4)n3)ccc21 [Example 149, N-[2-(3,5-Difluoro-4-methoxy-benzyl)-2H-[1,2,3]triazol-4-yl]-2-(1-ethyl-1H-indazol-5-yl)-acetamide] |
| 0.59 µM | COc1cc(Cn2ncc(NC(=O)Cc3ccc(C(C)(C)C)cc3)n2)cc(F)c1F [Example 218, 2-(4-tert-Butyl-phenyl)-N-[2-(3,4-difluoro-5-methoxy-benzyl)-2H-[1,2,3]triazol-4-yl]-acetamide] |
| 0.023 µM | O=C(Cc1ccc(OC2CC2)cc1)Nc1cnn(Cc2ccc(F)c(F)c2)n1 [Example 10, 2-(4-Cyclopropoxy-phenyl)-N-[2-(3,4-difluoro-benzyl)-2H-[1,2,3]triazol-4-yl]-acetamide] |
| 0.069 µM | CCn1ncc2cc(CC(=O)Nc3cnn(Cc4ccc(C#N)c(F)c4)n3)ccc21 [Example 139, N-[2-(4-Cyano-3-fluoro-benzyl)-2H-[1,2,3]triazol-4-yl]-2-(1-ethyl-1H-indazol-5-yl)-acetamide] |
| 0.12 µM | COc1c(F)cc(Cn2ncc(NC(=O)Cc3ccc(C4(C(F)(F)F)CC4)cc3)n2)cc1F [Example 145, N-[2-(3,5-Difluoro-4-methoxy-benzyl)-2H-[1,2,3]triazol-4-yl]-2-[4-(1-trifluoromethyl-cyclopropyl)-phenyl]-acetamide] |
| 0.015 µM | CCN(CC)c1ccc(CC(=O)Nc2cnn(Cc3ccc(F)c(F)c3)n2)cn1 [Example 16, 2-(6-Diethylamino-pyridin-3-yl)-N-[2-(3,4-difluoro-benzyl)-2H-[1,2,3]triazol-4-yl]-acetamide] |
| 0.023 µM | Cc1ccc(Cn2ncc(NC(=O)Cc3ccc(N4CCC(F)(F)C4)nc3)n2)cc1 [Example 65, 2-[6-(3,3-Difluoro-pyrrolidin-1-yl)-pyridin-3-yl]-N-[2-(4-methyl-benzyl)-2H-[1,2,3]triazol-4-yl]-acetamide] |
| 0.3 µM | COc1cc(Cn2ncc(NC(=O)Cc3ccc(C4(OC)COC4)cc3)n2)cc(F)c1F [Example 228, N-[2-(3,4-Difluoro-5-methoxy-benzyl)-2H-[1,2,3]triazol-4-yl]-2-[4-(3-methoxy-oxetan-3-yl)-phenyl]-acetamide] |
| 0.16 µM | Cc1nn(C)c2ccc(CC(=O)Nc3cnn(Cc4ccc(C#N)cc4)n3)cc12 [Example 102, N-[2-(4-Cyano-benzyl)-2H-[1,2,3]triazol-4-yl]-2-(1,3-dimethyl-1H-indazol-5-yl)-acetamide] |
| 0.074 µM | Cc1ccc(Cn2ncc(NC(=O)Cc3ccc(C(C)C)cc3)n2)cc1C#N [Example 216, N-[2-(3-Cyano-4-methyl-benzyl)-2H-[1,2,3]triazol-4-yl]-2-(4-isopropyl-phenyl)-acetamide] |
| 0.017 µM | CN(C)c1ccc(CC(=O)Nc2cnn(Cc3ccc(F)cc3)n2)cc1 [Example 2, 2-(4-Dimethylamino-phenyl)-N-[2-(4-fluoro-benzyl)-2H-[1,2,3]triazol-4-yl]-acetamide] |

| SMILES | IC50 |
| --- | --- |
| Cc1cc(Cn2ncc(NC(=O)Cc3ccc(OC4CC(F)(F)C4)cc3)n2)ccc1C#N [Example 166, N-[2-(4-Cyano-3-methyl-benzyl)-2H-[1,2,3]triazol-4-yl]-2-[4-(3,3-difluoro-cyclobutoxy)-phenyl]-acetamide] | 0.033 µM |
| COc1c(F)cc(Cn2ncc(NC(=O)Cc3ccc(OC4CC(F)(F)C4)cc3)n2)cc1F [Example 146, 2-[4-(3,3-Difluoro-cyclobutoxy)-phenyl]-N-[2-(3,5-difluoro4-methoxy-benzyl)-2H-[1,2,3]triazol-4-yl]-acetamide] | 0.81 µM |
| COc1cc(Cn2ncc(NC(=O)Cc3ccc(OC4CC(F)(F)C4)cc3)n2)cc(F)c1F [Example 230, 2-[4-(3,3-Difluoro-cyclobutoxy)-phenyl]-N-[2-(3,4-difluoro-5-methoxy-benzyl)-2H-[1,2,3]triazol-4-yl]-acetamide] | 0.35 µM |
